Laboratory results as given in patent publication US12011444B2, “N-substituted indole derivatives as PGE2 receptor modulators” (Idorsia Pharmaceuticals Ltd, priority 2015, dated 2024).
pIC50: −log10 of the molar value.

Legend:
[1] = biological target: EP4 (Homo sapiens (Human), UniProt P35408); assay: hEP4 cAMP assay (BT549 breast cancer cells, HTRF cAMP); type: cell-based; settings: antagonistic activity; mean values where measured multiple times
Method: Plate is pre-incubated 45 minutes at room temperature. Subsequently, 2.5 microliters of PGE2 (final conc. 6 nM) are transferred into the assay plate. Plate is incubated 30 minutes at room temperature.

[2] = biological target: EP2 (Homo sapiens (Human), UniProt P43116);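 also: antagonism of PGE2-stimulated cAMP accumulation in SF295 human glioblastoma cells with endogenous EP2, cAMP read by HTRF, expressed relative to DMSO control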
Chain of EP2 (P43116 whole entry): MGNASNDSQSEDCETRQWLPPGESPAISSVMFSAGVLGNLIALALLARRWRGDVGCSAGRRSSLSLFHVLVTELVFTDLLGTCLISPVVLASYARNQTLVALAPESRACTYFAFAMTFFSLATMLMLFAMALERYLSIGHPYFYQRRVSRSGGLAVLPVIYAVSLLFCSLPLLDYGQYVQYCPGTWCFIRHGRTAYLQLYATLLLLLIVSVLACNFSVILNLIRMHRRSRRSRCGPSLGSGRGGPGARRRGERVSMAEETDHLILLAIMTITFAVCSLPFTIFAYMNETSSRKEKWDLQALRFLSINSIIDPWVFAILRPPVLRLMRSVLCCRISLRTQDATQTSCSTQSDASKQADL
Text: Human tumor cell lines expressing endogenously either EP4 or EP2 are used and cAMP accumulation in cells upon PGE2 stimulation is monitored. SF295 glioblastoma cells express high endogenous EP2 and no EP4, whereas BT549 breast cancer cells, express high endogenous EP4 levels and very low EP2 levels.
As a detection method for cAMP the HTRF (homogeneous time resolved fluorescence) Cisbio kit (HTRF cAMP dynamic 2 kit 20′000 tests Cisbio Cat. #62AM4PEC) was used, which is based on a competitive immunoassay using a Cryptate-labeled anti-cAMP antibody and d2-labeled cAMP. Native cAMP produced by cells or unlabeled cAMP (for the standard curve) compete with exogenously added d2-labeled cAMP (acceptor) for binding to monoclonal anti-cAMP-Eu3+Cryptate (donor). A FRET signal (Fluorescence Resonance Energy Transfer) is obtained only if the labeled anti-cAMP antibody binds the d2 labelled cAMP, thus the specific signal (i.e. energy transfer) is inversely proportional to the concentration of cAMP in the standard or sample.
The SF295 cells (NCI/No. 0503170) are detached from culture dishes with a cell dissociation buffer (Invitrogen, 13151-014), and collected in growing medium (GM: RPM11640 (Invitrogen 21875)/10% FCS, 1% Penicilin/streptomycin). Cells are counted washed and resuspended in assay buffer (AB; HBSS, 20 mM HEPES, 0.2% BSA; 2 mM IBMX). 4,000 cells in 5 μl of AB are seeded per well of a small volume 384 well plate (black with flat bottom, Greiner 784076).
PGE2 (Cayman 14010, stock solution: 75 μM in DMSO) is used as agonist at 75 nM final concentration, corresponding to EC80.
Two point five microliters of diluted compounds are transferred into the assay plate. Plate is pre-incubated 45 minutes at room temperature. Subsequently, 2.5 microliters of PGE2 (final conc. 75 nM) are transferred into the assay plate. Plate is incubated 30 minutes at room temperature. Five μl of each donor (anti-cAMP cryptate) and acceptor (cAMP-d2) are added and the plate is incubated another hour at room temperature in the dark and then read using a BMG LABTECH PHERAstar reader (Excitation: 337 nm, Emission: 620 and 665 nm).
The obtained Delta F (fluorescence) values (665 nm/620 nM) are converted into % cAMP values using the measurements of the cAMP calibrator provided in the kit. For each compound concentration the percentage of cAMP compared to DMSO control value as average±STDEV (each concentration is measured in duplicate) is calculated.
IC50 values and curves are generated with XLfit software (IDBS) using Dose-Response One Site model 203. When compounds were measured multiple times, mean values are given.

Chain of EP4 (P35408 whole entry): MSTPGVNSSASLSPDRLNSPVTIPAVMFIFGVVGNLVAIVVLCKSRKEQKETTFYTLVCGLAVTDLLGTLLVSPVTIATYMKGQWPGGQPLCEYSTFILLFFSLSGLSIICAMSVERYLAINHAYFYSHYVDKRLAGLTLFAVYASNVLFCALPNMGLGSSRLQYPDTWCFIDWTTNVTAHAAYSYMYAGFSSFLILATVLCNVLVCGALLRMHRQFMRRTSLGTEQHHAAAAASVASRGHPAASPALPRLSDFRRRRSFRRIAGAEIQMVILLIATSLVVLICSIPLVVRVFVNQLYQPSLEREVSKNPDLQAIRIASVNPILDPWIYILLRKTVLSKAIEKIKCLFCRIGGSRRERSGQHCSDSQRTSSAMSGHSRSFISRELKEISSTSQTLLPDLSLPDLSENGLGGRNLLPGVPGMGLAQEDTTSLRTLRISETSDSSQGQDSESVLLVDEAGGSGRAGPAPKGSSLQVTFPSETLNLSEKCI

| pIC50 [1] | pIC50 [2] | Compound |
| --- | --- | --- |
| 7.01 | 8.40 | CCNc1cc(-c2cc(NCCn3c(C)cc4c(OC)ccc(F)c43)ncn2)cc(F)c1C(=O)O [compound 483] |
| 6.28 | 6.62 | COc1cc(F)c(F)c2c1cc(C)n2CCNc1cc(-c2ccc(-c3cc(C)no3)cc2)ncn1 [compound 717] |
| 6.57 | 7.14 | Cc1cc(-c2ccc(-c3cc(NCCn4c(C)cc5c(C)cc(F)cc54)ncn3)cc2)on1 [compound 713] |
| 7.77 | 8.70 | CCNc1cc(-c2cc(NCCn3c(C)cc4c(OC)cccc43)ncn2)ccc1-c1nnn[nH]1 [compound 667, {6-[3-Ethylamino-4-(1H-tetrazol-5-yl)-phenyl]-pyrimidin-4-yl}-[2-(4-methoxy-2-methyl-indol-1-yl)-ethyl]-amine] |
| 7.12 | 7.31 | CCOc1cc(-c2cc(NCCn3c(C)cc4c(OC)cc(F)c(F)c43)ncn2)ccc1C(=O)O [compound 487] |
| 6.89 | 7.35 | COc1cc(F)cc2c1cc(C)n2CCNc1cc(-c2ccc(C(=O)O)c(CC(C)C)c2)nc(C)n1 [compound 623] |
| 7.24 | 7.42 | COc1cc(F)c(F)c2c1cc(C)n2CCNc1cc(-c2ccc3c(ccn3C)c2)ncn1 [compound 707, [2-(6,7-Difluoro-4-methoxy-2-methyl-indol-1-yl)-ethyl]-[6-(1-methyl-1H-indol-5-yl)-pyrimidin-4-yl]-amine] |
| 6.60 | 7.68 | CCCc1cc(-c2cc(NCCn3c(C)cc4c(OC)ccc(Cl)c43)ncn2)cc(F)c1C(=O)O [compound 512] |
| 6.19 | 6.27 | CCOc1cc(-c2cc(NCCn3c(C)cc4c(OC)ccc(F)c43)ncn2)ccc1CNC1CC1 [compound 473] |
| 6.36 | 7.11 | Cc1nc(-c2ccc(-c3cc(NCCn4c(C)cc5c(C)cc(F)cc54)ncn3)cc2)co1 [compound 565] |
| 6.15 | 6.12 | CCOc1cc(-c2cc(NCCn3c(C)cc4c(OC)c(Cl)cc(F)c43)ncn2)ccc1C(=O)O [compound 491] |
| 6.95 | 7.60 | CCCOc1cc(-c2cc(NCCn3c(C)cc4c(OC)cc(F)cc43)ncn2)cc(Cl)c1C(=O)O [compound 607] |
| 6.66 | 7.15 | CCOc1cc(-c2cc(NCCn3c(C)cc4c(OC)ccc(Cl)c43)ncn2)cc(Cl)c1C(=O)O [compound 488] |
| 6.28 | 7.36 | CCSc1cc(-c2cc(NCCn3c(C)cc4c(OC)c(F)cc(Cl)c43)ncn2)ccc1C(=O)O [compound 542] |
| 7.60 | 7.72 | COc1cc(F)cc2c1cc(C)n2CCNc1cc(-c2cc(C(F)(F)F)c(C(=O)O)s2)nc(C)n1 [compound 541] |
| 6.64 | 8.70 | Cc1cc2ccccc2n1CCNc1cc(-c2ccc(-c3nnn[nH]3)s2)ncn1 [Example 792, [2-(2-Methyl-indol-1-yl)-ethyl]-{6-[5-(1H-tetrazol-5-yl)-thiophen-2-yl]-pyrimidin-4-yl}-amine] |
| 6.99 | 7.60 | CCOc1cc(-c2cc(NCCn3c(C)cc4c(OC)ccc(F)c43)ncn2)cc(Cl)c1C(=O)O [compound 489] |
| 6.33 | 7.44 | COc1cc(-c2cc(NCCn3c(C)cc4c(OC)ccc(Cl)c43)ncn2)ccc1-c1nnn[nH]1 [compound 684, [2-(7-Chloro-4-methoxy-2-methyl-indol-1-yl)-ethyl]-{6-[3-methoxy-4-(1H-tetrazol-5-yl)-phenyl]-pyrimidin-4-yl}-amine] |
| 7.38 | 8.00 | CCCOc1cc(-c2cc(NCCn3c(C)cc4c(OC)ccc(F)c43)ncn2)cc(Cl)c1C(=O)O [compound 609] |
| 7.19 | 7.25 | CCNC(=O)Nc1ccc(-c2cc(NCCn3c(C)cc4c(OC)ccc(Cl)c43)ncn2)cc1OC [compound 554] |
| 7.41 | 7.89 | CNc1nnc(-c2ccc(-c3cc(NCCn4c(C)cc5c(C)cc(F)cc54)ncn3)cc2)s1 [compound 592] |
